Where two headings read alike, the source gives them in different places.
Experiments:
Kv1.3 potassium channel = molecular target: T1, Kv1.3 potassium channel (Homo sapiens, UniProt P22001); test: Kv1.3 potassium channel blocker activity, automated whole-cell patch clamp (Patchliner); type: cell-based; details: CHO-K1 cells stably expressing Kv1.3; whole cell current inhibition; read-out: Kvl.3 IC50
T1 construct: expressed in transfected cells
Method: This assay is used to evaluate the disclosed compounds' activities as Kv1.3 potassium channel blockers.
CHO-K1 cells stably expressing Kv1.3 were grown in DMEM containing 10% heat-inactivated FBS, 1 mM Sodium Pyruvate, 2 mM L-Glutamine and G418 (500 μg/ml).
(§1) All compounds were dissolved in DMSO at 30 mM.
The currents were evoked by applying 100 ms depolarizing pulses from −90 mV (holding potential) to +40 mV were applied with 0.1 Hz frequency. […] 10 second breaks were used between pulse trains (see Table A below).
Data were sampled at 10 kHz without filtering. Passive leak currents were subtracted online using a P/4 procedure (HEKA Elektronik Dr. Schulze GmbH). […] Total compound incubation time before the next pulse train was not longer than 10 seconds. Peak current inhibition was observed during compound equilibration.

hERG channel = molecular target: T2, hERG channel (Homo sapiens, UniProt Q12809); test: hERG electrophysiology, automated whole-cell patch clamp (Patchliner); type: cell-based
T2 construct: expressed in transfected cells
T2 sequence (Q12809 whole entry): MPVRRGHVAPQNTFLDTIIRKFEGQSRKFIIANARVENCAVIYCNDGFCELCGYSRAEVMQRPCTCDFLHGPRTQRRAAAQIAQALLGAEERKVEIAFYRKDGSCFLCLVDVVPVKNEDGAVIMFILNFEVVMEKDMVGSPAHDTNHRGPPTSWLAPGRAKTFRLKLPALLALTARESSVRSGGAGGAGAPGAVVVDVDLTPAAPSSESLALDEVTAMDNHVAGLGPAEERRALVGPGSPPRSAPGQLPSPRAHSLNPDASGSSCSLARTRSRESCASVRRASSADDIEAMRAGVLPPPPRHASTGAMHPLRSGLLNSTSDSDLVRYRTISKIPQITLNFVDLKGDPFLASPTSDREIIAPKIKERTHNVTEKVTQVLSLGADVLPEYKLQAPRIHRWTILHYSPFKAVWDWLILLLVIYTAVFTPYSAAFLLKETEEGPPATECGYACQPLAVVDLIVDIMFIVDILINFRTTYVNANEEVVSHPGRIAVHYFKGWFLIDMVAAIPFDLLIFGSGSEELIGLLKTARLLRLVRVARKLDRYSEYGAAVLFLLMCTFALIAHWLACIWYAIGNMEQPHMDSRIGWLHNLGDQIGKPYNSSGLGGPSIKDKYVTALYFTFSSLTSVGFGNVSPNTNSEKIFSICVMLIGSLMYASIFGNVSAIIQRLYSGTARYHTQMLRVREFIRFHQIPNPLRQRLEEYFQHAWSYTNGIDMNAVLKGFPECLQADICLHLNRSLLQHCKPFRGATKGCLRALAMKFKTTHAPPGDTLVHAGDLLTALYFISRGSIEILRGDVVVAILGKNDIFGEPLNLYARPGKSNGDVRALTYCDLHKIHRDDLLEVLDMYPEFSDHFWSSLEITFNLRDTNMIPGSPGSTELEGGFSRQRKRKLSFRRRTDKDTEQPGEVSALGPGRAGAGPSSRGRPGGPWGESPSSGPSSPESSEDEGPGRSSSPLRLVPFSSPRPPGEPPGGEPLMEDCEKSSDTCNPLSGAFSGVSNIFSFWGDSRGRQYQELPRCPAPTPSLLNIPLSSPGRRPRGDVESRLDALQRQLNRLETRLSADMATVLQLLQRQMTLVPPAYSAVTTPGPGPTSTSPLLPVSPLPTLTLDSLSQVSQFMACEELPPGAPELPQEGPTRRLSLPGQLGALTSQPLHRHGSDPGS
Method: as §1
The pulse frequency was 0.3 Hz.
Data were sampled at 10 kHz without filtering.

[1] = CHO-K1 cells stably expressing hERG, whole cell current inhibition, read-out: hERG IC50

T1 sequence (P22001 whole entry): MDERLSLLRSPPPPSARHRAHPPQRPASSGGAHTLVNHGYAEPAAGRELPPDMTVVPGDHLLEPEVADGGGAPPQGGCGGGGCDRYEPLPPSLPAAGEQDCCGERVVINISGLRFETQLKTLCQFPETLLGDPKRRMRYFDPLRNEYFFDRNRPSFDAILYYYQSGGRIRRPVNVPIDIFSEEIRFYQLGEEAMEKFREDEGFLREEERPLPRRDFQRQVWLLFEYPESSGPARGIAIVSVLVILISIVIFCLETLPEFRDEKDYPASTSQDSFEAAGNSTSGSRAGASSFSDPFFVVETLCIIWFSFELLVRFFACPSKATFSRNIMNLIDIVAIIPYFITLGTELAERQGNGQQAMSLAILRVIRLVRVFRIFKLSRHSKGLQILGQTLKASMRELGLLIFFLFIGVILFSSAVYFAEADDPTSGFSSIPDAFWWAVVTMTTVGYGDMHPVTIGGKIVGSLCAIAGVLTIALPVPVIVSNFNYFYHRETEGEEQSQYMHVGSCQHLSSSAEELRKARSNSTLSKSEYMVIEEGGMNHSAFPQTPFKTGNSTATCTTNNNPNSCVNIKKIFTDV

Row | Compound | IC50 (Kv1.3 potassium channel) [µM] | IC50 (hERG channel; [1]) [µM] | IC50 (hERG channel) [µM] | IC50 (hERG channel; human, pH 7.4, CHO-K1 cells stably expressing hERG, whole cell current inhibition, read-out: hERG IC50) [µM]
1 | Oc1cc(Cl)c(Cl)cc1CN1CCC(c2ccn[nH]2)CC1 [Compound 30, 2-((4-(1H-pyrazol-5-yl)piperidin-1-yl)methyl)-4,5-dichlorophenol] | < 10 | < 30 | – | –
2 | OCC1CN(Cc2cc(Cl)c(Cl)cc2O)C1 [Compound 32, 4,5-dichloro-2-[[3-(hydroxymethyl)azetidin-1-yl]methyl]phenol] | < 10 | < 30 | – | –
3 | OCCC1CCN(Cc2cc(Cl)c(Cl)cc2O)CC1 [Compound 39, 4,5-dichloro-2-((4-(2-hydroxyethyl)piperidin-1-yl)methyl)phenol] | < 10 | < 30 | – | –
4 | Oc1cc(Cl)c(Cl)cc1CN1CCC2(CC1)COCC2O (centres unmarked) [Compound 40] | < 1 | – | < 30 | –
5 | Oc1cc(Cl)c(Cl)cc1CN1CCC(C2COC2)CC1 [Compound 42, 4,5-dichloro-2-[[4-(oxetan-3-yl)piperidin-1-yl]methyl]phenol] | < 10 | < 30 | – | –
6 | OCC1CCN(Cc2cc(Cl)c(Cl)cc2O)C1 (centres unmarked) [Compound 44, 4,5-dichloro-2-[[3-(hydroxymethyl)pyrrolidin-1-yl]methyl]phenol] | < 10 | < 30 | – | –
7 | OCC1CCCN(Cc2cc(Cl)c(Cl)cc2O)C1 (centres unmarked) [Compound 45, 4,5-dichloro-2-[[3-(hydroxymethyl)piperidin-1-yl]methyl]phenol] | < 10 | < 30 | – | –
8 | OCC1(O)CCN(Cc2cc(Cl)c(Cl)cc2O)CC1 [Compound 48, 1-[(4,5-dichloro-2-hydroxyphenyl)methyl]-4-(hydroxymethyl)piperidin-4-ol] | < 10 | < 30 | – | –
9 | CC(=O)N1CCN(Cc2cc(Cl)c(Cl)cc2O)CC1 [Compound 49, 1-[4-[(4,5-dichloro-2-hydroxyphenyl)methyl]piperazin-1-yl]ethan-1-one] | < 10 | < 30 | – | –
10 | CC(C)(O)C1CCN(Cc2cc(Cl)c(Cl)cc2O)CC1 [Compound 50, 4,5-dichloro-2-[[4-(2-hydroxypropan-2-yl)piperidin-1-yl]methyl]phenol] | < 10 | < 30 | – | –
11 | Oc1cc(Cl)c(Cl)cc1CN1CCC2(CC1)COC2 [Compound 51, 4,5-dichloro-2-[2-oxa-7-azaspiro [3.5]nonan-7-ylmethyl] phenol] | < 10 | < 30 | – | –
12 | OCC1CN(Cc2cc(Cl)c(Cl)cc2O)CCO1 (centres unmarked) [Compound 52, 4,5-dichloro-2-[[2-(hydroxymethyl)morpholin-4-yl]methyl]phenol] | < 10 | – | – | 30
13 | CC1(CO)CCN(Cc2cc(Cl)c(Cl)cc2O)CC1 [Compound 53, 4,5-dichloro-2-[[4-(hydroxymethyl)-4-methylpiperidin-1-yl]methyl] phenol] | < 10 | < 30 | – | –
14 | N#CC1(CO)CCN(Cc2cc(Cl)c(Cl)cc2O)CC1 [Compound 54, 1-[(4,5-dichloro-2-hydroxyphenyl)methyl]-4-(hydroxymethyl)piperidine-4-carbonitrile] | < 10 | < 30 | – | –
15 | Oc1cc(Cl)c(Cl)cc1CN1CCC(O)CC1 [Compound 55, 1-[(4,5-dichloro-2-hydroxyphenyl)methyl] piperidin-4-ol] | < 10 | < 30 | – | –
16 | COCC1CCN(Cc2cc(Cl)c(Cl)cc2O)CC1 [Compound 56, 4,5-dichloro-2-[[4-(methoxymethyl)piperidin-1-yl]methyl]phenol] | < 10 | < 30 | – | –
17 | Oc1cc(Cl)c(Cl)cc1CN1CCC2(CCO2)CC1 [Compound 57, 4,5-dichloro-2-[1-oxa-7-azaspiro[3.5]nonan-7-ylmethyl]phenol] | < 10 | < 30 | – | –
18 | O=C(N1CCOCC1)N1CCN(Cc2cc(Cl)c(Cl)cc2O)CC1 [Compound 58, (4-(4,5-dichloro-2-hydroxybenzyl)piperazin-1-yl)(morpholino) methanone] | < 10 | < 30 | – | –
19 | OCC1CCN(Cc2cc(Br)c(Br)cc2O)CC1 [Compound 60, 4,5-dibromo-2-((4-(hydroxymethyl)piperidin-1-yl)methyl)phenol] | < 1 | < 30 | – | –
